Assay results published in patent US11505573B2, “Peptide macrocycles against Acinetobacter baumannii” (Hoffmann-La Roche Inc., priority 2018, dated 2022).

System: A. baumannii ATCC 17978
Assay: Antimicrobial susceptibility testing: 50% growth inhibitory concentration (IC50) determination in Iso-Sensitest broth
Type: cell-based
Conditions: Acinetobacter baumannii; A. baumannii strain ATCC17978; Iso-Sensitest medium; OD 600 nm over 16 h; 35±2° C.; read-out: IC50 ATCC17978 (50% growth inhibition concentration)
Procedure: Antimicrobial Susceptibility Testing: 50% Growth Inhibitory Concentration (IC50) Determination The in vitro antimicrobial activity of the compounds was alternatively determined according to the following procedure: The assay used a 10-points Iso-Sensitest broth medium to measure quantitatively the in vitro activity of the compounds against A. baumannii ATCC 17978. Stock compounds in DMSO were serially twofold diluted (e.g. range from 10 to 0.02 μM final concentration) in 384 wells microtiter plates and inoculated with 49 μl the bacterial suspension in Iso-Sensitest medium to have a final cell concentration of ˜5×10^(5) CFU/ml in a final volume/well of […] Microtiter plates were incubated at 35±2° C. Bacterial cell growth was determined by the measurement of optical density at λ=600 nm each 20 minutes over a time course of 16 h. Growth inhibition was calculated during the logarithmic growth of the bacterial cells by determination of the concentration inhibiting 50% (IC50) and 90% (IC90) of the growth. Table 1 provides the 50% growth inhibitory concentrations (IC50) in micromoles per liter of the compounds of present invention obtained against the A. baumannnii strain ATCC17978.

Structure (SMILES): CN1C(=O)[C@H](CCCCN)NC(=O)[C@H](CCCN)NCc2cccnc2Sc2c(Cl)ccc(-c3ccc(-c4nsc(=O)[nH]4)cc3)c2CNC(=O)[C@@H]1Cc1c[nH]c2ccccc12 [Example 3.00, (11S,14S,17S)-14-(4-Aminobutyl)-11-(3-aminopropyl)-25-chloro-17-(1H-indol-3-ylmethyl)-16-methyl-22-[4-(5-oxo-4H-1,2,4-thiadiazol-3-yl)phenyl]-2-thia-4,10,13,16,19-pentazatricyclo[19.4.0.03,8]pentacosa-1(25), 3(8),4,6,21,23-hexaene-12,15,18-trione]
- IC50: 80 nM

Structure (SMILES): CN1C(=O)[C@H](CCCCN)NC(=O)[C@H](CCCN)NCc2cccnc2Sc2c(Cl)ccc(-c3ccc(-c4noc(=O)[nH]4)cc3)c2CNC(=O)[C@@H]1Cc1c[nH]c2ccccc12 [Example 4.00, (11S,14S,17S)-14-(4-Aminobutyl)-11-(3-aminopropyl)-25-chloro-17-(1H-indol-3-ylmethyl)-16-methyl-22-[4-(5-oxo-4H-1,2,4-oxadiazol-3-yl)phenyl]-2-thia-4,10,13,16,19-pentazatricyclo[19.4.0.03,8]pentacosa-1(25), 3(8),4,6,21,23-hexaene-12,15,18-trione]
- IC50: 20 nM

Structure (SMILES): CN1C(=O)[C@H](CCCCN)NC(=O)[C@H](CCCN)NCc2cccnc2Sc2cccc(-c3ccc(-c4nnn[nH]4)cc3)c2CNC(=O)[C@@H]1Cc1c[nH]c2ccccc12 [Example 5.00, (11S,14S,17S)-14-(4-Aminobutyl)-1-(3-aminopropyl)-17-(1H-indol-3-ylmethyl)-16-methyl-22-[4-(1H-tetrazol-5-yl)phenyl]-2-thia-4,10,13,16,19-pentazatricyclo[19.4.0.03,8]pentacosa-1(25), 3(8),4,6,21,23-hexaene-12,15,18-trione]
- IC50: 20 nM

Structure (SMILES): CN1C(=O)[C@H](CCCCN)NC(=O)[C@H](CCCN)NCc2nccnc2Sc2c(Cl)ccc(-c3ccc(S(=O)(=O)O)cc3)c2CNC(=O)[C@@H]1Cc1c[nH]c2ccccc12 [Example 6.00, 4-[(11S,14S,17S)-14-(4-Aminobutyl)-1-(3-aminopropyl)-25-chloro-17-(1H-indol-3-ylmethyl)-16-methyl-12,15,18-trioxo-2-thia-4,7,10,13,16,19-hexazatricyclo[19.4.0.03,8]pentacosa-1(25), 3(8),4,6,21,23-hexaen-22-yl]benzenesulfonic acid]
- IC50: 20 nM

Structure (SMILES): CN1C(=O)[C@H](CCCCN)NC(=O)[C@H](CCCN)NCc2cccnc2Sc2c(F)ccc(-c3ccc(S(=O)(=O)O)cc3)c2CNC(=O)[C@@H]1Cc1c[nH]c2ccccc12 [Example 7.00, 4-[(11S,14S,17S)-14-(4-Aminobutyl)-11-(3-aminopropyl)-25-fluoro-17-(1H-indol-3-ylmethyl)-16-methyl-12,15,18-trioxo-2-thia-4,10,13,16,19-pentazatricyclo[19.4.0.03,8]pentacosa-1(25), 3(8),4,6,21,23-hexaen-22-yl]benzenesulfonic acid]
- IC50: 20 nM

Structure (SMILES): CN1C(=O)[C@H](CCCCN)NC(=O)[C@H](CCCN)NCc2cccnc2Sc2c(F)ccc(-c3ccc(-c4nnn[nH]4)cc3)c2CNC(=O)[C@@H]1Cc1c[nH]c2ccccc12 [Example 7.01, (11S,14S,17S)-14-(4-aminobutyl)-11-(3-aminopropyl)-25-fluoro-17-(1H-indol-3-ylmethyl)-16-methyl-22-[4-(1H-tetrazol-5-yl)phenyl]-2-thia-4,10,13,16,19-pentazatricyclo[19.4.0.03,8]pentacosa-1(25),3(8),4,6,21,23-hexaene-12,15,18-trione]
- IC50: 20 nM

Structure (SMILES): CC(=O)NS(=O)(=O)c1ccc(-c2ccc(F)c3c2CNC(=O)[C@H](Cc2c[nH]c4ccccc24)N(C)C(=O)[C@H](CCCCN)NC(=O)[C@H](CCCN)NCc2cccnc2S3)cc1 [Example 7.02, N-[4-[(11S,14S,17S)-14-(4-aminobutyl)-11-(3-aminopropyl)-25-fluoro-17-(1H-indol-3-ylmethyl)-16-methyl-12,15,18-trioxo-2-thia-4,10,13,16,19-pentazatricyclo[19.4.0.03,8]pentacosa-1(25),3(8),4,6,21,23-hexaen-22-yl]phenyl]sulfonylacetamide]
- IC50: 30 nM

Structure (SMILES): CN1C(=O)[C@H](CCCCN)NC(=O)[C@H](CCCN)NCc2cccnc2Sc2c(F)ccc(-c3ccc(C(=O)NS(C)(=O)=O)cc3)c2CNC(=O)[C@@H]1Cc1c[nH]c2ccccc12 [Example 7.03, 4-[(11S,14S,17S)-14-(4-aminobutyl)-11-(3-aminopropyl)-25-fluoro-17-(1H-indol-3-ylmethyl)-16-methyl-12,15,18-trioxo-2-thia-4,10,13,16,19-pentazatricyclo[19.4.0.03,8]pentacosa-1(25),3(8),4,6,21,23-hexaen-22-yl]-N-methylsulfonyl-benzamide]
- IC50: 40 nM

Structure (SMILES): CN1C(=O)[C@H](CCCN)NC(=O)[C@H](CCCN)NCc2cccnc2Sc2c(Cl)ccc(-c3ccc(S(=O)(=O)O)cc3)c2CNC(=O)[C@@H]1Cc1c[nH]c2ccccc12 [Example 8.00, 4-[(11S,14S,17S)-11,14-Bis(3-aminopropyl)-25-chloro-17-(1H-indol-3-ylmethyl)-16-methyl-12,15,18-trioxo-2-thia-4,10,13,16,19-pentazatricyclo[19.4.0.03,8]pentacosa-1(21),3,5,7,22,24-hexaen-22-yl]benzenesulfonic acid]
- IC50: 20 nM

Structure (SMILES): CN1C(=O)[C@H](CCCN)NC(=O)[C@H](CCCN)NCc2cccnc2Sc2c(Cl)ccc(-c3ccc(-c4nnn[nH]4)cc3)c2CNC(=O)[C@@H]1Cc1c[nH]c2ccccc12 [Example 8.01, (11S,14S,17S)-11,14-bis(3-aminopropyl)-25-chloro-17-(1H-indol-3-ylmethyl)-16-methyl-22-[4-(1H-tetrazol-5-yl)phenyl]-2-thia-4,10,13,16,19-pentazatricyclo[19.4.0.03,8]pentacosa-1(21),3,5,7,22,24-hexaene-12,15,18-trione]
- IC50: 20 nM

Structure (SMILES): CN1C(=O)[C@H](CCCN)NC(=O)[C@H](CCCN)NCc2cccnc2Sc2c(Cl)ccc(-c3cnc(=O)[nH]c3)c2CNC(=O)[C@@H]1Cc1c[nH]c2ccccc12 [Example 8.02, (11S,14S,17S)-11,14-bis(3-aminopropyl)-25-chloro-17-(1H-indol-3-ylmethyl)-16-methyl-22-(2-oxo-1H-pyrimidin-5-yl)-2-thia-4,10,13,16,19-pentazatricyclo[19.4.0.03,8]pentacosa-1(21),3,5,7,22,24-hexaene-12,15,18-trione]
- IC50: 80 nM

Structure (SMILES): CN1C(=O)[C@H](CCCN)NC(=O)[C@H](CCCN)NCc2cccnc2Sc2c(F)ccc(-c3ccc(S(=O)(=O)O)cc3)c2CNC(=O)[C@@H]1Cc1c[nH]c2ccccc12 [Example 9.00, 4-[(11S,14S,17S)-11,14-Bis(3-aminopropyl)-25-fluoro-17-(1H-indol-3-ylmethyl)-16-methyl-12,15,18-trioxo-2-thia-4,10,13,16,19-pentazatricyclo[19.4.0.03,8]pentacosa-1(25), 3(8),4,6,21,23-hexaen-22-yl]benzenesulfonic acid]
- IC50: 20 nM

Structure (SMILES): CN1C(=O)[C@H](CCCN)NC(=O)[C@H](CCCN)NCc2cccnc2Sc2c(F)ccc(-c3ccc(-c4nnn[nH]4)cc3)c2CNC(=O)[C@@H]1Cc1c[nH]c2ccccc12 [Example 9.01, (11S,14S,17S)-11,14-Bis(3-aminopropyl)-25-fluoro-17-(1H-indol-3-ylmethyl)-16-methyl-22-[4-(1H-tetrazol-5-yl)phenyl]-2-thia-4,10,13,16,19-pentazatricyclo[19.4.0.03,8]pentacosa-1(25), 3(8),4,6,21,23-hexaene-12,15,18-trione]
- IC50: 20 nM

Structure (SMILES): CN1C(=O)[C@H](CCCN)NC(=O)[C@H](CCCN)NCc2cccnc2Sc2c(F)ccc(-c3ccc(P(=O)(O)O)cc3)c2CNC(=O)[C@@H]1Cc1c[nH]c2ccccc12 [Example 10.00, [4-[(11S,14S,17S)-11,14-Bis(3-aminopropyl)-25-fluoro-17-(1H-indol-3-ylmethyl)-16-methyl-12,15,18-trioxo-2-thia-4,10,13,16,19-pentazatricyclo[19.4.0.03,8]pentacosa-1(25), 3(8),4,6,21,23-hexaen-22-yl]phenyl]phosphonic acid]
- IC50: 620 nM

Structure (SMILES): CN1C(=O)[C@H](CCCCN)NC(=O)[C@H](CCC(N)=O)NCc2cccnc2Sc2c(Cl)ccc(-c3ccc(P(=O)(O)O)cc3)c2CNC(=O)[C@@H]1Cc1c[nH]c2ccccc12 [Example 10.01, [4-[(11S,14S,17S)-14-(4-aminobutyl)-11-(3-amino-3-oxo-propyl)-25-chloro-17-(1H-indol-3-ylmethyl)-16-methyl-12,15,18-trioxo-2-thia-4,10,13,16,19-pentazatricyclo[19.4.0.03,8]pentacosa-1(21),3,5,7,22,24-hexaen-22-yl]phenyl]phosphonic acid]
- IC50: 3030 nM

Structure (SMILES): CN1C(=O)[C@H](CCCCN)NC(=O)[C@H](CCCN)NCc2cccnc2Sc2c(Cl)ccc(-c3ccc(P(=O)(O)O)cc3)c2CNC(=O)[C@@H]1Cc1c[nH]c2ccccc12 [Example 10.02, [4-[(11S,14S,17S)-14-(4-aminobutyl)-11-(3-aminopropyl)-25-chloro-17-(1H-indol-3-ylmethyl)-16-methyl-12,15,18-trioxo-2-thia-4,10,13,16,19-pentazatricyclo[19.4.0.03,8]pentacosa-1(21),3,5,7,22,24-hexaen-22-yl]phenyl]phosphonic acid]
- IC50: 150 nM
